In patent EP0403242A1, “New L-683,590 microbial transformation product” (Merck & Co., Inc., priority 1989, dated 1990):
Where “and” joins values, the source holds several entries; their conditions need not be identical. Equal values may be shown once. Read-outs that look alike come from different tables or passages of the source. Each block holds one compound with its values, some of them ahead of it.

What was measured:
mouse T lymphocytes = assay: T-cell proliferation assay (ionomycin plus PMA induced T-cell stimulation, tritiated thymidine uptake); assay type: cell-based, C57B1/6 mice
Procedure: The principle of this assay is to measure the proliferation of mouse T lymphocytes stimulated with the combination of ionomycin plus PMA. […] Cells were pelleted by centrifugation at 1500 rpm for 8 minutes. Contaminating red cells were removed by treating the pellet with ammonium chloride lysing buffer (GIBCO) for 2 minutes at 4°C. Cold medium was added and cells were again centrifuged at 1500 rpm for 8 minutes. T lymphocytes were then isolated by separation of the cell suspension on nylon wool columns as follows: Nylon wool columns were prepared by packing approximately 4 grams of washed and dried nylon wool into 20 ml plastic syringes. The columns were sterilized by autoclaving at 250°F for 30 minutes. Nylon wool columns were wetted with warm (37°C) culture medium and rinsed with the same medium. Washed spleen cells resuspended in warm medium were slowly applied to the nylon wool. The columns were then incubated in an upright position at 37°C for 1 hour. Non-adherent T lymphocytes were eluted from the columns with warm culture medium and the cell suspensions were spun as above. […] The cell suspension was immediately distributed into 96 well flat-bottom microculture plates (Costar) at 200 μl/well. […] The proliferation of T lymphocytes was assessed by measurement of tritiated thymidine incorporation. After 44 hours of culturing, the cells were pulse-labelled with 2 μCi/well of tritiated thymidine (NEN, Cambridge, MA). After another 4 hours of incubation, cultures were harvested on glass fiber filters using a multiple sample harvester. Radioactivity of filter discs corresponding to individual wells was measured by standard liquid scintillation counting methods (Betacounter). […]

[1] = Physical characteristics of the fermentation product; assay type: physicochemical; settings: qualitative, solvent methanol
From the text: White amorphous powder • 2. […] Molecular weight of 763, as determined by electron impact mass spectroscopy and is consistent with the assigned molecular structure in Figure 1.

Compound: C=CC[C@@H]1/C=C(\C)C[C@H](C)C[C@H](OC)[C@H]2O[C@@](O)(C(=O)C(=O)N3CCCC[C@H]3C(=O)O[C@H](/C(C)=C/[C@@H]3CC[C@@H](O)[C@H](OC)C3)[C@H](C)[C@@H](O)CC1=O)[C@H](C)C[C@@H]2OC [L-679,934, reference compound]
- inhibition at 0.001 µg/mL (mouse T lymphocytes; Mus musculus, T-lymphocyte, Table 1, L-679,934 1 ng/ml alone (0 ng/ml L-686,292)): 99%
- inhibition at 0.001 µg/mL (mouse T lymphocytes; Mus musculus, T-lymphocyte, Table 2, L-679,934 (1 ng/ml) alone (0 ng/ml L-686,292)): 97.1%
- IC50 (mouse T lymphocytes; Mus musculus, T-lymphocyte, read-out: IC₅₀ for L-679,934-mediated inhibition): 0.00032 µg/mL and 0.4 nM

- Solubility [1]: Solubility in methanol
Compound: CC[C@@H]1/C=C(\C)C[C@H](C)C[C@H](O)[C@H]2O[C@@](O)(C(=O)C(=O)N3CCCC[C@H]3C(=O)O[C@H](/C(C)=C/[C@@H]3CC[C@@H](O)[C@H](O)C3)[C@H](C)[C@@H](O)CC1=O)[C@H](C)C[C@@H]2OC [L-686,292]
- inhibition at 0.031 µg/mL (mouse T lymphocytes; Mus musculus, T-lymphocyte, 48 h, Table 1, L-686,292 only, 31 ng/ml, harvest at 48 hours): 0%
- inhibition at 0.063 µg/mL (mouse T lymphocytes; Mus musculus, T-lymphocyte, 48 h, Table 1, L-686,292 only, 63 ng/ml, harvest at 48 hours): 0%
- inhibition at 0.125 µg/mL (mouse T lymphocytes; Mus musculus, T-lymphocyte, 48 h, Table 1, L-686,292 only, 125 ng/ml, harvest at 48 hours): 0%
- inhibition at 0.25 µg/mL (mouse T lymphocytes; Mus musculus, T-lymphocyte, 48 h, Table 1, L-686,292 only, 250 ng/ml, harvest at 48 hours): 0%
- inhibition at 0.5 µg/mL (mouse T lymphocytes; Mus musculus, T-lymphocyte, 48 h, Table 1, L-686,292 only, 500 ng/ml, harvest at 48 hours): 0%
- inhibition at 1 µg/mL (mouse T lymphocytes; Mus musculus, T-lymphocyte, 48 h, Table 1, L-686,292 only, 1000 ng/ml, harvest at 48 hours): 0%
- inhibition at 0.001 µg/mL (mouse T lymphocytes; Mus musculus, T-lymphocyte, Table 1, L-686,292 31 ng/ml & L-679,934 (1 ng/ml), read-out: % Inhibition): 99%
- inhibition at 0.001 µg/mL (mouse T lymphocytes; Mus musculus, T-lymphocyte, Table 1, L-686,292 63 ng/ml & L-679,934 (1 ng/ml), read-out: % Inhibition): 99%
- inhibition at 0.001 µg/mL (mouse T lymphocytes; Mus musculus, T-lymphocyte, Table 1, L-686,292 125 ng/ml & L-679,934 (1 ng/ml), read-out: % Inhibition): 96%
- inhibition at 0.001 µg/mL (mouse T lymphocytes; Mus musculus, T-lymphocyte, Table 1, L-686,292 250 ng/ml & L-679,934 (1 ng/ml), read-out: % Inhibition): 65%
- inhibition at 0.001 µg/mL (mouse T lymphocytes; Mus musculus, T-lymphocyte, Table 1, L-686,292 500 ng/ml & L-679,934 (1 ng/ml), read-out: % Inhibition): 3%
- inhibition at 0.001 µg/mL (mouse T lymphocytes; Mus musculus, T-lymphocyte, Table 1, L-686,292 1000 ng/ml & L-679,934 (1 ng/ml), read-out: % Inhibition): 0%
- inhibition at 0.001 µg/mL (mouse T lymphocytes; Mus musculus, T-lymphocyte, Table 2, L-686,292 31.3 ng/ml + inhibitor L-679,934 (1 ng/ml), read-out: % Inhibition): 93.4%
- inhibition at 0.001 µg/mL (mouse T lymphocytes; Mus musculus, T-lymphocyte, Table 2, L-686,292 62.5 ng/ml + inhibitor L-679,934 (1 ng/ml), read-out: % Inhibition): 65.7%
- inhibition at 0.001 µg/mL (mouse T lymphocytes; Mus musculus, T-lymphocyte, Table 2, L-686,292 125 ng/ml + inhibitor L-679,934 (1 ng/ml), read-out: % Inhibition): 0%
- inhibition at 0.001 µg/mL (mouse T lymphocytes; Mus musculus, T-lymphocyte, Table 2, L-686,292 1000 ng/ml + inhibitor L-679,934 (1 ng/ml), read-out: % Inhibition): 4.7%
- IC50 (mouse T lymphocytes; Mus musculus, T-lymphocyte, reversal of inhibition by L-679,934 (1 ng/ml), read-out: IC₅₀ of reversal): 0.25 µg/mL and 328 nM
- IC50 (mouse T lymphocytes; Mus musculus, T-lymphocyte, reversal of inhibition by L-679,934, 'generally in the range', read-out: IC₅₀ of reversal, general range): 0.1 to 0.4 µM
- L-679,934 antagonist activity (mouse T lymphocytes; qualitative statement): exhibits reversal of L-679,934 mediated inhibition of T-cell activation
